# Activity calls are given as the source filed them. No cut-off for these calls is given here.
# Legend:
# RAW264.7 [1] = experiment: Anti-inflammatory activity in mouse RAW264.7 cells assessed as reduction in LPS-induced IL-1beta mRNA expression pre-incubated for 3 hrs before LPS-stimulation for 12 hrs by RT-qPCR method; assay type: functional, cell-based
# RAW264.7 [2] = experiment: Cytotoxicity in mouse RAW264.7 cells at 10 to 80 uM by MTT assay; assay type: cell-based; conditions: raw264.7, 80 µM
# BV-2 [3] = experiment: Anti-inflammatory activity in mouse BV2 cells assessed as reduction in LPS-induced IL12 mRNA expression pre-incubated for 3 hrs before LPS-stimulation for 12 hrs by RT-qPCR method; assay type: functional, cell-based
# BV-2 [4] = experiment: Anti-inflammatory activity in mouse BV2 cells assessed as reduction in LPS-induced IL6 mRNA expression pre-incubated for 3 hrs before LPS-stimulation for 12 hrs by RT-qPCR method; assay type: functional, cell-based
# BV-2 [5] = experiment: Anti-inflammatory activity in mouse BV2 cells assessed as reduction in LPS-induced IL-1beta mRNA expression pre-incubated for 3 hrs before LPS-stimulation for 12 hrs by RT-qPCR method; assay type: functional, cell-based
# BV-2 [6] = experiment: Inhibition of LPS-stimulated iNOS protein expression in mouse BV2 cells pre-incubated for 3 hrs before LPS-stimulation for 24 hrs by Western blot method; assay type: functional, cell-based
# BV-2 [7] = experiment: Inhibition of LPS-stimulated COX2 protein expression in mouse BV2 cells pre-incubated for 3 hrs before LPS-stimulation for 24 hrs by Western blot method; assay type: functional, cell-based
# Mus musculus [8] = species: Mus musculus; experiment: Inhibition of LPS-stimulated NFkappaB signalling activation in mouse BV2 cells assessed as reduction in IkappaB phosphorylation pre-incubated for 3 hrs before LPS-stimulation for 60 mins by Western blot method; assay type: cell-based
# RAW264.7 [9] = experiment: Anti-inflammatory activity in mouse RAW264.7 cells assessed as reduction in LPS-induced TNFalpha mRNA expression pre-incubated for 3 hrs before LPS-stimulation for 12 hrs by RT-qPCR method; assay type: functional, cell-based
# Mus musculus [10] = species: Mus musculus; experiment: Inhibition of LPS-stimulated NFkappaB p65/p50 nuclear translocation in mouse RAW264.7 cells assessed as increase in cytosolic p65/p50 protein level at 10 to 40 uM pre-incubated for 3 hrs before LPS-stimulation for 60 mins by Western blot method; assay type: cell-based
# Mus musculus [11] = species: Mus musculus; experiment: Inhibition of LPS-stimulated NFkappaB p65/p50 nuclear translocation in mouse BV2 cells assessed as increase in cytosolic p65/p50 protein level at 10 to 40 uM pre-incubated for 3 hrs before LPS-stimulation for 60 mins by Western blot method; assay type: cell-based
# BV-2 [12] = experiment: Anti-inflammatory activity in mouse BV2 cells assessed as reduction in LPS-induced PGE2 production pre-incubated for 3 hrs before LPS-stimulation for 24 hrs; assay type: functional, cell-based
# RAW264.7 [13] = experiment: Anti-inflammatory activity in mouse RAW264.7 cells assessed as reduction in LPS-induced PGE2 production pre-incubated for 3 hrs before LPS-stimulation for 24 hrs; assay type: functional, cell-based
# BV-2 [14] = experiment: Cytotoxicity in mouse BV2 cells at 10 to 80 uM by MTT assay; assay type: cell-based; conditions: bv-2, 80 µM
# Mus musculus [15] = species: Mus musculus; experiment: Inhibition of LPS-stimulated NFkappaB DNA binding activity in mouse RAW264.7 cells assessed pre-incubated for 3 hrs before LPS-stimulation for 60 mins by ELISA; assay type: cell-based
# RAW264.7 [16] = experiment: Anti-inflammatory activity in mouse RAW264.7 cells assessed as reduction in LPS-induced nitric oxide production pre-incubated for 3 hrs before LPS-stimulation for 24 hrs by Griess reagent based ELISA; assay type: functional, cell-based
# RAW264.7 [17] = experiment: Anti-inflammatory activity in mouse RAW264.7 cells assessed as reduction in LPS-induced IL6 mRNA expression pre-incubated for 3 hrs before LPS-stimulation for 12 hrs by RT-qPCR method; assay type: functional, cell-based
# BV-2 [18] = experiment: Anti-inflammatory activity in mouse BV2 cells assessed as reduction in LPS-induced TNFalpha mRNA expression pre-incubated for 3 hrs before LPS-stimulation for 12 hrs by RT-qPCR method; assay type: functional, cell-based
# RAW264.7 [19] = experiment: Inhibition of LPS-stimulated COX2 protein expression in mouse RAW264.7 cells pre-incubated for 3 hrs before LPS-stimulation for 24 hrs by Western blot method; assay type: functional, cell-based
# RAW264.7 [20] = experiment: Inhibition of LPS-stimulated iNOS protein expression in mouse RAW264.7 cells pre-incubated for 3 hrs before LPS-stimulation for 24 hrs by Western blot method; assay type: functional, cell-based
# Mus musculus [21] = species: Mus musculus; experiment: Inhibition of LPS-stimulated NFkappaB DNA binding activity in mouse BV2 cells assessed pre-incubated for 3 hrs before LPS-stimulation for 60 mins by ELISA; assay type: cell-based
# RAW264.7 [22] = experiment: Anti-inflammatory activity in mouse RAW264.7 cells assessed as reduction in LPS-induced IL12 mRNA expression pre-incubated for 3 hrs before LPS-stimulation for 12 hrs by RT-qPCR method; assay type: functional, cell-based
# BV-2 [23] = experiment: Anti-inflammatory activity in mouse BV2 cells assessed as reduction in LPS-induced nitric oxide production pre-incubated for 3 hrs before LPS-stimulation for 24 hrs by Griess reagent based ELISA; assay type: functional, cell-based
# Mus musculus [24] = species: Mus musculus; experiment: Inhibition of LPS-stimulated NFkappaB signalling activation in mouse RAW264.7 cells assessed as reduction in IkappaB phosphorylation pre-incubated for 3 hrs before LPS-stimulation for 60 mins by Western blot method; assay type: cell-based
structure (smiles),measurement,setting,value
C/C=C/[C@@H]1C=CC(=O)[C@H](O)[C@]12C(=O)O[C@H](C)[C@@H]2O,inhibition,RAW264.7 [1],Dose-dependent effect
same,Activity,RAW264.7 [2],Non-Toxic
same,inhibition,BV-2 [3],Dose-dependent effect
same,inhibition,BV-2 [4],Dose-dependent effect
same,inhibition,BV-2 [5],Dose-dependent effect
same,inhibition,BV-2 [6],Dose-dependent effect
same,inhibition,BV-2 [7],Dose-dependent effect
same,inhibition,Mus musculus [8],Dose-dependent effect
same,inhibition,RAW264.7 [9],Dose-dependent effect
same,inhibition,Mus musculus [10],Active
same,inhibition,Mus musculus [11],Active
same,IC50,BV-2 [12],27.6 µM
same,IC50,RAW264.7 [13],22.8 µM
same,Activity,BV-2 [14],Non-Toxic
same,inhibition,Mus musculus [15],Dose-dependent effect
same,IC50,RAW264.7 [16],23.5 µM
same,inhibition,RAW264.7 [16],Dose-dependent effect
same,inhibition,RAW264.7 [17],Dose-dependent effect
same,inhibition,BV-2 [18],Dose-dependent effect
same,inhibition,RAW264.7 [19],Dose-dependent effect
same,inhibition,RAW264.7 [20],Dose-dependent effect
same,inhibition,Mus musculus [21],Dose-dependent effect
same,inhibition,RAW264.7 [22],Dose-dependent effect
same,IC50,BV-2 [23],21.9 µM
same,inhibition,BV-2 [23],Dose-dependent effect
same,inhibition,Mus musculus [24],Dose-dependent effect
